Data reported in article PMC12543283, “TastepepAI: An artificial intelligence platform for taste peptide de novo design” (PLOS Computational Biology, 2025).
Ends that are not written are not given here.

What was measured:
[1] = system: human umbilical vein endothelial cells (HUVEC)
[2] = system: human pancreatic ductal epithelial cells (HPNE)
Protocol: (§1) The cytotoxicity of 73 synthetic peptides was evaluated using four human cell lines: human pancreatic ductal epithelial cells (HPNE), human embryonic kidney cells (HEK293T), human umbilical vein endothelial cells (HUVEC), and human bronchial epithelial cells (BEAS-2B). When cell density reached 70% confluence, the complete culture medium was replaced with serum-free maintenance medium, and peptides were added at a final concentration of 100 μM for 36 h. Control groups received only serum-free maintenance medium without peptides. Cell proliferation was assessed using the CCK-8 assay kit (Solarbio, CA1210) according to the manufacturer’s instructions.

[3] = system: human embryonic kidney cells (HEK293T)
[4] = system: human bronchial epithelial cells (BEAS-2B)
Protocol: as §1

[5] = Electronic tongue analysis (Taste-Sensing System SA 402B); design: unit not given here; conditions: reference solution 30 mM KCl + 0.3 mM tartaric acid as baseline, first measurement excluded; for Umami: sensor AAE; for Umami / Bitter / Sweet: detection threshold 0, room temperature; for Umami / Bitter / Sour / Salty: four replicates; for Sour: detection threshold -13, room temperature; for Salty: detection threshold -6, room temperature; for Sweet: measured five times
Protocol: Taste characteristics were analyzed using the electronic tongue system E-tongue (Taste-Sensing System SA 402B, Intelligent Sensor Technology Co. Ltd., Japan). The system was equipped with five specific sensor probes for detecting sourness (CA0), saltiness (CT0), bitterness (C00), sweetness (GL1), and umami (AAE). Samples were tested at concentrations of 0.1 mg/mL and 1.0 mg/mL. Prior to experiments, sensors were activated by immersion in a reference solution (30 mM KCl and 0.3 mM tartaric acid) for 24 h. A 30 min self-diagnostic procedure was performed before each measurement to ensure data accuracy. The reference solution served both as a cleaning solution and standard solution for taste signal calibration. According to the manufacturer’s instructions, using the reference solution as baseline, the detection thresholds were set at −13 for sourness, −6 for saltiness, and 0 for other taste modalities. Two cleaning solutions were employed for electrode maintenance: (1) 30% ethanol solution containing 100 mM HCl for negative charge reference electrodes, and (2) 30% ethanol solution containing 100 mM KCl and 10 mM KOH for positive charge reference electrodes. All taste measurements were performed at room temperature with four replicates, except for sweetness which was measured five times. The first measurement data were excluded from analysis.

Substance	Average cell viability, HUVEC [1]	Cell viability, HUVEC, Data1 [1]	Cell viability, HUVEC, Data2 [1]	Cell viability, HUVEC, Data3 [1]	Average cell viability, HPNE [2]	Cell viability, HPNE, Data1 [2]	Cell viability, HPNE, Data2 [2]	Cell viability, HPNE, Data3 [2]	Average cell viability, HEK293T [3]	Cell viability, HEK293T, Data1 [3]	Cell viability, HEK293T, Data2 [3]	Cell viability, HEK293T, Data3 [3]	Average cell viability, BEAS-2B [4]	Cell viability, BEAS-2B, Data1 [4]	Cell viability, BEAS-2B, Data2 [4]	Cell viability, BEAS-2B, Data3 [4]	Umami ([5]; peptide 0.1 mg/mL)	Umami ([5]; peptide 1 mg/mL)	Bitter ([5]; sensor C00, peptide 0.1 mg/mL)	Bitter ([5]; sensor C00, peptide 1 mg/mL)	other results
STGTIR [TaPep51]	103.43	102.66	96.59	111.04	102.86	115.31	89.05	104.23	100.60	100.60	99.65	101.55	98.34	100.20	97.01	97.81	3.88	-2.27	9.91	7.16	Sour ([5]; sensor CA0, peptide 0.1 mg/mL): -8.80; Sour ([5]; sensor CA0, peptide 1 mg/mL): 5.93; Salty ([5]; sensor CT0, peptide 0.1 mg/mL): -19.53; Salty ([5]; sensor CT0, peptide 1 mg/mL): 8.48; Sweet ([5]; sensor GL1, peptide 0.1 mg/mL): 12.64; Sweet ([5]; sensor GL1, peptide 1 mg/mL): -1.16
ANGPE [TaPep69]	102.58	91.72	108.65	107.37	101.93	107.52	97.94	100.33	99.97	100.13	102.30	97.48	106.78	116.65	94.82	108.87	1.23	-4.62	7.32	3.75	Sour ([5]; sensor CA0, peptide 0.1 mg/mL): -2.38; Sour ([5]; sensor CA0, peptide 1 mg/mL): 11.54; Salty ([5]; sensor CT0, peptide 0.1 mg/mL): -19.29; Salty ([5]; sensor CT0, peptide 1 mg/mL): 9.06; Sweet ([5]; sensor GL1, peptide 0.1 mg/mL): 5.65; Sweet ([5]; sensor GL1, peptide 1 mg/mL): -4.24
SNDPVA [TaPep71]	96.51	91.41	97.95	100.19	94.64	86.86	82.76	114.31	97.98	102.11	95.68	96.15	108.14	100.40	109.77	114.26	1.39	-5.94	7.30	4.11	Sour ([5]; sensor CA0, peptide 0.1 mg/mL): -2.77; Sour ([5]; sensor CA0, peptide 1 mg/mL): 14.75; Salty ([5]; sensor CT0, peptide 0.1 mg/mL): -20.93; Salty ([5]; sensor CT0, peptide 1 mg/mL): 9.59; Sweet ([5]; sensor GL1, peptide 0.1 mg/mL): 5.63; Sweet ([5]; sensor GL1, peptide 1 mg/mL): -5.65
IAVPHEP [TaPep47]	101.12	101.62	112.48	89.25	99.80	107.02	87.25	105.12	100.09	104.67	100.41	95.21	106.38	109.97	99.00	110.17	2.32	-4.54	8.00	3.37	Sour ([5]; sensor CA0, peptide 0.1 mg/mL): -4.89; Sour ([5]; sensor CA0, peptide 1 mg/mL): 10.97; Salty ([5]; sensor CT0, peptide 0.1 mg/mL): -19.15; Salty ([5]; sensor CT0, peptide 1 mg/mL): 9.73; Sweet ([5]; sensor GL1, peptide 0.1 mg/mL): 6.95; Sweet ([5]; sensor GL1, peptide 1 mg/mL): -5.60
